# Measured values published in ChEMBL document CHEMBL6134788, “Development of naphthalimide hydrazide derivatives as potent antibacterial agents against carbapenem-resistant A. baumannii” (RSC Med Chem, 2024).
# Key:
# [1] = tested on: Escherichia coli; test: Antibacterial activity against Escherichia coli ATCC 25922 assessed as inhibition of bacterial growth incubated for 16 to 18 hrs by CLSI protocol based method; assay type: functional; conditions: time 16-18 hrs, read-out: MIC100
# [2] = tested on: Staphylococcus aureus; test: Antibacterial activity against Staphylococcus aureus ATCC 29213 assessed as inhibition of bacterial growth incubated for 16 to 18 hrs by CLSI protocol based method; assay type: functional; conditions: time 16-18 hrs, read-out: MIC100
# [3] = tested on: Klebsiella pneumoniae; test: Antibacterial activity against Klebsiella pneumoniae BAA 1705 assessed as inhibition of bacterial growth incubated for 16 to 18 hrs by CLSI protocol based method; assay type: functional; conditions: time 16-18 hrs, read-out: MIC100
# [4] = tested on: Acinetobacter baumannii; test: Antibacterial activity against carbapenem-resistant Acinetobacter baumannii BAA 1605 assessed as inhibition of bacterial growth incubated for 16 to 18 hrs by CLSI protocol based method; assay type: functional; conditions: time 16-18 hrs
# [5] = tested on: Pseudomonas aeruginosa; test: Antibacterial activity against Pseudomonas aeruginosa ATCC 27853 assessed as inhibition of bacterial growth incubated for 16 to 18 hrs by CLSI protocol based method; assay type: functional; conditions: time 16-18 hrs, read-out: MIC100
# [6] = Cytotoxicity against African green monkey Vero cells assessed as reduction in cell viability incubated for 72 hrs by MTT assay; assay type: toxicity, cell-based; conditions: chlorocebus sabaeus
# [7] = Selectivity index, ratio of CC50 for cytotoxicity against African green monkey VERO cells to MIC for antibacterial activity against carbapenem-resistant Acinetobacter baumannii BAA 1605 assessed as inhibition of bacterial growth; assay type: toxicity, cell-based; conditions: read-out: Selectivity Index
# [8] = tested on: Acinetobacter baumannii; test: Antibacterial activity against multi-drug resistant Acinetobacter baumannii H72721 assessed as inhibition of bacterial growth incubated for 16 to 18 hrs by CLSI protocol based method; assay type: functional; conditions: time 16-18 hrs, read-out: MIC100
# [9] = tested on: Acinetobacter baumannii; test: Antibacterial activity against multi-drug resistant Acinetobacter baumannii clinical isolate 1 assessed as inhibition of bacterial growth incubated for 16 to 18 hrs by CLSI protocol based method; assay type: functional; conditions: time 16-18 hrs, read-out: MIC100
# [10] = tested on: Acinetobacter baumannii; test: Antibacterial activity against multi-drug resistant Acinetobacter baumannii clinical isolate 2 assessed as inhibition of bacterial growth incubated for 16 to 18 hrs by CLSI protocol based method; assay type: functional; conditions: time 16-18 hrs, read-out: MIC100
# [11] = tested on: Acinetobacter baumannii; test: Antibacterial activity against multi-drug resistant Acinetobacter baumannii clinical isolate 3 assessed as inhibition of bacterial growth incubated for 16 to 18 hrs by CLSI protocol based method; assay type: functional; conditions: time 16-18 hrs, read-out: MIC100
# [12] = tested on: Acinetobacter baumannii; test: Antibacterial activity against multi-drug resistant Acinetobacter baumannii clinical isolate 4 assessed as inhibition of bacterial growth incubated for 16 to 18 hrs by CLSI protocol based method; assay type: functional; conditions: time 16-18 hrs, read-out: MIC100
# [13] = tested on: Acinetobacter baumannii; test: Antibacterial activity against multi-drug resistant Acinetobacter baumannii clinical isolate 5 assessed as inhibition of bacterial growth incubated for 16 to 18 hrs by CLSI protocol based method; assay type: functional; conditions: time 16-18 hrs, read-out: MIC100
# [14] = tested on: Acinetobacter baumannii; test: Antibacterial activity against multi-drug resistant Acinetobacter baumannii clinical isolate 6 assessed as inhibition of bacterial growth incubated for 16 to 18 hrs by CLSI protocol based method; assay type: functional; conditions: time 16-18 hrs, read-out: MIC100
# [15] = tested on: Acinetobacter baumannii; test: Antibacterial activity against multi-drug resistant Acinetobacter baumannii clinical isolate 7 assessed as inhibition of bacterial growth incubated for 16 to 18 hrs by CLSI protocol based method; assay type: functional; conditions: time 16-18 hrs, read-out: MIC100
# [16] = tested on: Acinetobacter baumannii; test: Antibacterial activity against multi-drug resistant Acinetobacter baumannii clinical isolate 8 assessed as inhibition of bacterial growth incubated for 16 to 18 hrs by CLSI protocol based method; assay type: functional; conditions: time 16-18 hrs, read-out: MIC100
# [17] = tested on: Acinetobacter baumannii; test: Antibacterial activity against multi-drug resistant Acinetobacter baumannii clinical isolate 9 assessed as inhibition of bacterial growth incubated for 16 to 18 hrs by CLSI protocol based method; assay type: functional; conditions: time 16-18 hrs, read-out: MIC100
# [18] = tested on: Acinetobacter baumannii; test: Antibacterial activity against multi-drug resistant Acinetobacter baumannii clinical isolate 10 assessed as inhibition of bacterial growth incubated for 16 to 18 hrs by CLSI protocol based method; assay type: functional; conditions: time 16-18 hrs, read-out: MIC100
# [19] = tested on: Acinetobacter baumannii; test: Antibacterial activity against multi-drug resistant Acinetobacter baumannii clinical isolate 11 assessed as inhibition of bacterial growth incubated for 16 to 18 hrs by CLSI protocol based method; assay type: functional; conditions: time 16-18 hrs, read-out: MIC100
# [20] = tested on: Acinetobacter baumannii; test: Antibacterial activity against multi-drug resistant Acinetobacter baumannii clinical isolate 12 assessed as inhibition of bacterial growth incubated for 16 to 18 hrs by CLSI protocol based method; assay type: functional; conditions: time 16-18 hrs, read-out: MIC100
# [21] = tested on: Acinetobacter baumannii; test: Antibacterial activity against multi-drug resistant Acinetobacter baumannii NR-17777 assessed as inhibition of bacterial growth incubated for 16 to 18 hrs by CLSI protocol based method; assay type: functional; conditions: time 16-18 hrs, read-out: MIC100
# [22] = tested on: Acinetobacter baumannii; test: Antibacterial activity against multi-drug resistant Acinetobacter baumannii 5-032 assessed as inhibition of bacterial growth incubated for 16 to 18 hrs by CLSI protocol based method; assay type: functional; conditions: time 16-18 hrs, read-out: MIC100
# [23] = tested on: Acinetobacter baumannii; test: Antibacterial activity against multi-drug resistant Acinetobacter baumannii 5-109 assessed as inhibition of bacterial growth incubated for 16 to 18 hrs by CLSI protocol based method; assay type: functional; conditions: time 16-18 hrs, read-out: MIC100
# [24] = tested on: Acinetobacter baumannii; test: Antibacterial activity against multi-drug resistant Acinetobacter baumannii 5-143 assessed as inhibition of bacterial growth incubated for 16 to 18 hrs by CLSI protocol based method; assay type: functional; conditions: time 16-18 hrs, read-out: MIC100
# [25] = tested on: Acinetobacter baumannii; test: Antibacterial activity against multi-drug resistant Acinetobacter baumannii 5-189 assessed as inhibition of bacterial growth incubated for 16 to 18 hrs by CLSI protocol based method; assay type: functional; conditions: time 16-18 hrs, read-out: MIC100
# [26] = tested on: Acinetobacter baumannii; test: Antibacterial activity against multi-drug resistant Acinetobacter baumannii BC-5 assessed as inhibition of bacterial growth incubated for 16 to 18 hrs by CLSI protocol based method; assay type: functional; conditions: time 16-18 hrs, read-out: MIC100
# [27] = tested on: Acinetobacter baumannii; test: Antibacterial activity against multi-drug resistant Acinetobacter baumannii Naval-17 assessed as inhibition of bacterial growth incubated for 16 to 18 hrs by CLSI protocol based method; assay type: functional; conditions: time 16-18 hrs, read-out: MIC100
# [28] = tested on: Acinetobacter baumannii; test: Antibacterial activity against multi-drug resistant Acinetobacter baumannii Naval-18 assessed as inhibition of bacterial growth incubated for 16 to 18 hrs by CLSI protocol based method; assay type: functional; conditions: time 16-18 hrs, read-out: MIC100
# [29] = tested on: Acinetobacter baumannii; test: Antibacterial activity against multi-drug resistant Acinetobacter baumannii Naval-81 assessed as inhibition of bacterial growth incubated for 16 to 18 hrs by CLSI protocol based method; assay type: functional; conditions: time 16-18 hrs, read-out: MIC100
# [30] = tested on: Acinetobacter baumannii; test: Antibacterial activity against multi-drug resistant Acinetobacter baumannii WL-136 assessed as inhibition of bacterial growth incubated for 16 to 18 hrs by CLSI protocol based method; assay type: functional; conditions: time 16-18 hrs, read-out: MIC100
# [31] = tested on: Acinetobacter baumannii; test: Antibacterial activity against multi-drug resistant Acinetobacter baumannii WL-487 assessed as inhibition of bacterial growth incubated for 16 to 18 hrs by CLSI protocol based method; assay type: functional; conditions: time 16-18 hrs, read-out: MIC100
# [32] = tested on: Acinetobacter baumannii; test: Antibacterial activity against Acinetobacter baumannii ATCC 17978 assessed as inhibition of bacterial growth incubated for 16 to 18 hrs by CLSI protocol based method; assay type: functional; conditions: time 16-18 hrs, read-out: MIC100
Compound,MIC ([4]; read-out: MIC100) [mg/L],CC50 at 72 h [6] [mg/L],selectivity ratio [7],MIC [8] [mg/L],MIC [9] [mg/L],MIC [10] [mg/L],MIC [11] [mg/L],MIC [12] [mg/L],MIC [13] [mg/L],MIC [14] [mg/L],MIC [15] [mg/L],MIC [16] [mg/L],MIC [17] [mg/L],MIC [18] [mg/L],MIC [19] [mg/L],MIC [20] [mg/L],MIC [21] [mg/L],MIC [22] [mg/L],MIC [23] [mg/L],MIC [24] [mg/L],also measured
O=C(CCN1C(=O)c2cccc3cccc(c23)C1=O)NNc1ccc(Cl)cc1,0.5,> 100,> 200,1,1,1,0.5,1,2,2,1,1,1,2,2,1,2,2,2,2,MIC [1]: > 64 mg/L; MIC [2]: > 64 mg/L; MIC [3]: > 64 mg/L; MIC [5]: > 64 mg/L; MIC [25]: 2 mg/L; MIC [26]: 1 mg/L; MIC [27]: 1 mg/L; MIC [28]: 1 mg/L; MIC [29]: 1 mg/L; MIC [30]: 1 mg/L; MIC [31]: 1 mg/L; MIC [32]: 1 mg/L
C[C@@H](O)[C@H]1C(=O)N2C(C(=O)O)=C(S[C@@H]3CN[C@H](C(=O)N(C)C)C3)[C@H](C)[C@H]12 [MEROPENEM],16,,,32,16,32,16,32,> 64,> 64,2,64,> 64,16,64,> 64,4,4,4,8,MIC [25]: 2 mg/L; MIC [26]: > 64 mg/L; MIC [27]: 4 mg/L; MIC [28]: 64 mg/L; MIC [29]: 4 mg/L; MIC [30]: 2 mg/L; MIC [31]: 1 mg/L; MIC [32]: 0.5 mg/L
COc1cccc2c1C(=O)c1c(O)c3c(c(O)c1C2=O)C[C@@](O)(C(=O)CO)C[C@@H]3O[C@H]1C[C@H](N)[C@H](O)[C@H](C)O1 [DOXORUBICIN],,< 10,< 1,,,,,,,,,,,,,,,,,,MIC ([4]; read-out: MIC): > 64 mg/L
